According to US4022832A, “2-Aminoacetamido-α-phenylbenzylideneaminoalkanol derivatives and process for the preparation thereof” (Sankyo Company Limited, priority 1975, dated 1977):

Experiments:
Type in all cases: in vivo
mice [1] = assay: Potentiation of anesthesia (thiopental); settings: Mus musculus, po, P.O., 1 hour before 30mg/kg thiopental i.v., dose prolonging loss of righting reflex twice that of thiopental only, Litchfield and Wilcoxon
Experimental: (3) Potentiation of anesthesia
One hour after oral administration of the test compound, 30mg/kg of thiopental is intravenously injected, and the dose is determined which prolongs the duration of loss of the righting reflex twice that of the group administered only with thiopental.
(§1) (4) Calculation of ED50 values
(§2) The values are calculated according to the method of Litchfield and Wilcoxon [J. Pharmcol. Exp. Therap., 96, 99 (1949)].

mice [2] = assay: Anti-electroshock convulsant effect; settings: Mus musculus, po, P.O., 1 hour before electroshock (1000V, 12.5mA, 0.2sec.) through both corneas, Litchfield and Wilcoxon
Experimental: (2) Anti-electroshock convulsant effect
One hour after oral administration of the test compound, an electroshock (1000V, 12.5mA, 0.2sec.) is applied through both corneas and anti-convulsant activity of the compound is observed.
as §1, §2

mice [3] = assay: Anti-bemegride convulsant effect; settings: Mus musculus, po, P.O., 1 hour before 30mg/kg bemegride s.c., observed for 30 minutes, Litchfield and Wilcoxon
Experimental: (1) Anti-bemegride convulsant effect
One hour after oral administration of the test compound, 30mg/kg of bemegride is subcutaneously injected and the anti-convulsant activity of the compound is observed for 30 minutes.
as §1, §2

Structure (SMILES)	ED50 (mice [1])	ED50 (mice [2])	ED50 (mice [3])
CNC1=Nc2ccc(Cl)cc2C(c2ccccc2)=[N+]([O-])C1 [Chlordiazepoxide]	12 mg/kg	27 mg/kg	2.7 mg/kg
NCC(=O)Nc1ccc(Br)cc1C(=NCCO)c1ccccc1F [2-{[2-Aminoacetamido-5-bromo-α -(2-fluorophenyl)benzylidene]amino}ethanol]	2.9 mg/kg	8 mg/kg	0.31 mg/kg
